Patent US20210008229A1, “TARGETED PHOTOACOUSTIC AGENTS AND USES THEREOF” (McMaster University, priority 2019, published 2021)
In brackets after ≈: the same amount, converted by molar mass. Each block holds one compound with its values, some of them ahead of it.

What was measured:
[1] = comparison value for ICG; cited from earlier work
plasma proteins = assay: plasma binding study; format: in vitro ADME; conditions: for Pellet: activity in protein pellet; for Supernatant: activity in supernatant
Excerpt: FIG. 13 is a plot showing the results of a plasma binding study of TCO-BP labeled with ^99mTc and coupled to a dye-tetrazine conjugate according to an embodiment of the present application. […]

[2] = biodistribution study (gamma counting of tissues and fluids); format: in vivo, BALB/c mice
Method: FIG. 11 is a plot showing biodistribution data for selected fluids and tissues for TCO-BP labeled with ^99mTc and coupled to a dye-tetrazine conjugate according to an embodiment of the present application. Experiments were performed using Balb/c mice (n=3 per time point) and tissues and fluids were collected at 1, 3, 6, and 24 h post administration. Data are expressed as the mean percent injected dose per gram (% ID g−1)±SEM.
(upper plot) and fluorescence spectra and intensity data for blood samples (n=3 for each time point) following the administration of TCO-BP labeled with ^99mTc and coupled to a dye-tetrazine conjugate according to an embodiment of the present application taken at 1, 3, 6, and 24 h p.i. (lower plot).
Biodistribution studies were performed using female BALB/c mice (Charles River, Kingston, N.Y.) at the indicated time points. The mice were administered the agents via tail vein injection with the final volume not exceeding 200 μL. A 5 mg/mL solution of compound 9 (see Scheme 2, below) in 10% ethanol in saline was administered at a dose of 20 mg/kg to all mice (approximately 518 kBq of 9). For all studies, at 1, 3, 6, or 24 h post-injection of the labeled compound, the animals were euthanized by cervical dislocation. Fluids, bone (knee and shoulder), and select tissues were collected, weighed, and counted in a PerkinElmer Wizard 1470 automatic gamma counter. Decay correction was used to normalize organ activity measurements to time of dose preparation for data calculations. Data is expressed as percent injected dose per gram tissue or fluid (% ID/g) or percent injected dose per organ (% ID/O).
Mice were administered 9 (518 kBq) and sacrificed at […] post injection where fluids, bone (knee, shoulder), and other key tissues were collected, weighed, and counted in a gamma counter. The resulting data is shown in FIG. 11 and expressed as percent injected dose per gram of tissue or fluid (% ID g^−1).

[3] = tested on: sites of high calcium accretion; assay: in vivo photoacoustic imaging of the knee joint (calcium accretion); design: species or system Balb/c mice; conditions: for photoacoustic signal in the knee (or shoulder) joints: in vivo, 1 hour post-injection
Method: The white arrows indicate the knee joint and light grey arrows indicate blood vessels.
Photoacoustic imaging was performed using Vevo LAZR-X (FUJIFILM VisualSonics Inc., Toronto, ON, Canada) Imaging system equipped with a 680-970 nm laser. Mice were anaesthetized with isofluorane and set up on a platform that monitored the respiration rate and the heart rate of the mouse. The hair on the hindlimb was removed while the mouse was anaesthetized. A 30-MHz, linear array ultrasound transducer with integrated fiber optic light delivery (LZ-400 and MX-400, FUJIFILM VisualSonics, Inc.) was positioned laterally overtop the hindlimb knee joint. The integrated fiber bundle delivered 15 to 20 mJ/cm^2 of light to the hindlimb of the mouse.
There are a number of TCO-derived molecules, including antibodies and small molecules, that are available for use as targeting vectors.^16,17,18,19 For a proof of concept study, compound 5 was combined with a TCO-derived bisphosphonate (TCO-BP (6)). TCO-BP has been used to target radiolabeled tetrazines to sites of high calcium accretion. Conveniently, the compound allows testing to be performed in inexpensive healthy mouse models since tetrazine derivatives coupled to TCO-BP should localize to elbow and knee joints where there is elevated turnover of calcium.^16,20,21 Compound 7 was prepared by mixing compounds 5 and 6 at room temperature for 10 min in quantitative yield; highlighting the ease with which new photoacoustic imaging agents can be prepared using this approach.
For in vivo studies, a group of Balb/c mice were administered the parent tetrazine 5 and a second group received the bisphosphonate derivative 7.

[4] = tested on: 143B human osteosarcoma xenografts; assay: in vivo photoacoustic imaging of tumor xenografts; design: species or system BALB/c nu/nu mice; conditions: 1 hour post injection versus background before injection; 200 μL of 5 (1 mg)
Method: Red in color images=oxyhemoglobin, Blue in color images=deoxyhemoglobin and Green in color images=the dye-tetrazine conjugate according to an embodiment of the present application. The dashed white lines outline the tumor.
Female BALB/c […] mice (Charles River Laboratories, Kingston, N.Y.) at 4-6 weeks of age were sterile housed and maintained at 24° C. with a 12 h light/dark cycle and were provided autoclaved food and water ad libitum. All procedures were conducted according to the guidelines of the Committee for Research and Ethical Issues of the International Association for the Study of Pain, and guidelines established by the Canadian Council on Animal Care and the McMaster University Animal Research Ethics Board. Female 10-11 week old BALB/c nu/nu mice (Charles River Laboratories, Kingston, N.Y.) were injected with 2.0×10^6 143 B cells in Matrigel:Dulbecco's phosphate-buffered saline (DPBS) (1:1) subcutaneously into the right flank. Photoacoustic studies were performed 10 days following tumor inoculation.
Photoacoustic imaging was performed using Vevo LAZR-X (FUJIFILM VisualSonics Inc., Toronto, ON, Canada) Imaging system equipped with a 680-970 nm laser. Mice were anaesthetized with isofluorane and set up on a platform that monitored the respiration rate and the heart rate of the mouse. The hair on the hindlimb was removed while the mouse was anaesthetized. […]

[5] = solubility / formulation concentration in 10% ethanol in saline; format: physicochemical; conditions: aqueous with cosolvent or surfactant or cyclodextrin, read-out: concentration formulated (soluble)
Method: Prior to developing and testing a targeted derivative, in vivo imaging studies were performed with 5 and 143B human osteosarcoma xenografts. Compound 5 was soluble in 10% ethanol in saline and formulated at a concentration of 5 mg mL^−1, which conveniently is higher than what can be achieved for ICG (1 mg mL^−1). Prior to injection, tumors were imaged in order to separate the signals arising from oxygenated and deoxygenated hemoglobin, and 5, which are shown in red, blue and green respectively in color images of FIG. 8. Following administration of 200 μL of 5 (1 mg), signal arising from 5 was clearly visible in the tumor as early as 1 hour post-injection (FIG. 8, upper right image). Mice were sacrificed and the tumors were imaged ex vivo (FIG. 8, lower left image) where uptake of the dye within the tumor was clearly evident.

[6] = target: T1, bovine serum albumin (BSA) (Bos taurus, UniProt P02769); assay: preliminary albumin binding study (absorbance and emission with BSA); conditions: absorbance and emission of 5 with varying concentrations of BSA
T1 construct: purchased Sigma-Aldrich
T1 sequence (P02769 25-607): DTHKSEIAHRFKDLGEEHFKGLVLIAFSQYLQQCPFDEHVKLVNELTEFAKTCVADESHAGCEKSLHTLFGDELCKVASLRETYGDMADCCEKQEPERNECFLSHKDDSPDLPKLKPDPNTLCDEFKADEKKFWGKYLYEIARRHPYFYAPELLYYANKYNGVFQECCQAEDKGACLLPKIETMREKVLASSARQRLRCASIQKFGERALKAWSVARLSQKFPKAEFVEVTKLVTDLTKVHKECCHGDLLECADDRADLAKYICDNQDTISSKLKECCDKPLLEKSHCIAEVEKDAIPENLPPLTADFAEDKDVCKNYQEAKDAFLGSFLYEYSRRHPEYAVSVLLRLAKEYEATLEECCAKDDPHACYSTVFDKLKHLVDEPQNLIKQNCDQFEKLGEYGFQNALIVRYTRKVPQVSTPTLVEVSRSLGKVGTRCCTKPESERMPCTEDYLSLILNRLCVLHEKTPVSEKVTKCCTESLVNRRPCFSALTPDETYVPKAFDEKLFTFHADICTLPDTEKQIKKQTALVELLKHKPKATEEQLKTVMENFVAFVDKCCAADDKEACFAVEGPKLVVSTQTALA
Method: When experiments were performed at high dye concentrations, aggregation completely quenches the fluorescence signal, which can be restored through the addition of albumin.

[7] = stability of 5 in plasma (HPLC); format: in vitro ADME; conditions: murine plasma at 37° C.
Method: Compound 5 was prepared from the commercially available dye IR-783, which is known to produce a strong photoacoustic signal, in only two steps. The first step involved the preparation of the IR-783-aldehyde 3 which was done successfully using a Suzuki-Miyaura coupling between 1 and 2 in the presence of Pd(PPh3)4 and Cs2CO3. A significant number of different catalysts, bases and reaction conditions were screened to maximize the yield of 3 (96%). The aldehyde was subsequently coupled to tetrazine 4, prepared using a literature procedure,^14 to form the hydrazone 5. Following characterization by nuclear magnetic resonance (NMR) spectroscopy, high resolution mass spectrometry (HRMS) and high performance liquid chromatography (HPLC), the stability of 5 in plasma was evaluated.

SMILES: CC1(C)C(/C=C/C=C/C=C/C=C2\N(CCCCS(=O)(=O)O)c3ccc4ccccc4c3C2(C)C)=[N+](CCCCS(=O)(=O)[O-])c2ccc3ccccc3c21 [ICG, indocyanine green]
concentration that can be achieved [1]: 1000 µg/mL

SMILES: CC1(C)C(/C=C/C2=C(c3ccc(/C=N/Nc4ccc(C(=O)NCc5ccc(C6=NNC=C7CCC(OC(=O)NCCCC8(O)P(=O)(O)[O][Tc]9([OH])([OH])([O]P(=O)(O)C(O)(CCCNC(=O)OC%10CC/C=C/CCC%10)P(=O)(O)[O]9)[O]P8(=O)O)CCCC76)cc5)cn4)cc3)C(=C/C=C3\N(CCCCS(=O)(=O)[O-])c4ccccc4C3(C)C)/CCC2)=[N+](CCCCS(=O)(=O)[O][Na])c2ccccc21 (centres unmarked) [Compound 9]
Pellet (plasma proteins; 0 h): 32.79
Pellet (plasma proteins; 0.5 h): 36.10
Pellet (plasma proteins; 1 h): 47.53
Pellet (plasma proteins; 2 h): 45.29
Pellet (plasma proteins; 3 h): 47.72
Pellet (plasma proteins; 4 h): 46.88
Pellet (plasma proteins; 6 h): 47.83
Supernatant (plasma proteins; 0 h): 52.00
Supernatant (plasma proteins; 0.5 h): 53.44
Supernatant (plasma proteins; 1 h): 47.27
Supernatant (plasma proteins; 2 h): 49.35
Supernatant (plasma proteins; 3 h): 46.82
Supernatant (plasma proteins; 4 h): 47.42
Supernatant (plasma proteins; 6 h): 47.46
activity in the supernatant (plasma proteins; after 1 hour): 50%
activity present in the pellet containing the proteins (plasma proteins; after 1 hour): 50%
blood level relative to [99mTc]Tc-TCO-BP alone ([2]; 1 h): 20 ×
activity in the blood ([2]; 1 h post injection): over 15 % ID g^−1
blood level relative to [99mTc]Tc-TCO-BP alone ([2]; 6 h): 187 ×
blood half-life ([2]; determined using radioactive counting): 3.2 h

SMILES: CC1(C)C(/C=C/C2=C(c3ccc(/C=N/Nc4ccc(C(=O)NCc5ccc(C6=NNC=C7CCC(OC(=O)NCCCC(O)(P(=O)(O)O)P(=O)(O)O)CCCC76)cc5)cn4)cc3)C(=C/C=C3\N(CCCCS(=O)(=O)[O-])c4ccccc4C3(C)C)/CCC2)=[N+](CCCCS(=O)(=O)O)c2ccccc21 (centres unmarked) [Compound 7]
uptake in the leg, images ex vivo ([3]; ex vivo leg after 1 hour post-injection imaging): intense uptake
photoacoustic signal in the knee (or shoulder) joints [3]: significant signal

solubility [5]: 5000 µg/mL (≈ 4.54 mM)
stability in plasma (degradation) ([7]; out to 24 h): no signs of degradation
SMILES: CC1(C)C(/C=C/C2=C(c3ccc(/C=N/Nc4ccc(C(=O)NCc5ccc(-c6nncnn6)cc5)cn4)cc3)C(=C/C=C3\N(CCCCS(=O)(=O)[O-])c4ccccc4C3(C)C)/CCC2)=[N+](CCCCS(=O)(=O)O)c2ccccc21 [Compound 5]
increase in signal intensity in the tumor [4]: 2.3 ×
photoacoustic signal in the knee (or shoulder) joints [3]: did not show any significant signal
albumin binding [6]: dye binding to a hydrophobic binding site of albumin
reactivity of the tetrazine towards TCO-derivatives after plasma incubation ([7]; 24 h): remained reactive towards trans-cyclooctene (TCO)-derivatives
